Assay results from ChEMBL document CHEMBL5058649, “Data for DCP probe BAY 1816032” (2022).
The source made the active and inactive calls. The calls are words filed in the database; no cut-off is given here.

Key:
[1] = target: Cysteinyl leukotriene receptor 1 (Homo sapiens) (UniProt Q9Y271); test: Inhibition of Leukotriene, Cysteinyl CysLT1 at 10 µM in the Eurofins-Panlabs radioligand binding assay (Eurofins_assay_250460); design: ligand concentration 0.3 nM, non-specific ligand with concentration 0.3 µM Leukotriene D4, incubation time 30 min, incubation temperature 25 °C; conditions: Compound concentration 10.0 uM
Sequence of Cysteinyl leukotriene receptor 1 (Homo sapiens) (Q9Y271 whole entry): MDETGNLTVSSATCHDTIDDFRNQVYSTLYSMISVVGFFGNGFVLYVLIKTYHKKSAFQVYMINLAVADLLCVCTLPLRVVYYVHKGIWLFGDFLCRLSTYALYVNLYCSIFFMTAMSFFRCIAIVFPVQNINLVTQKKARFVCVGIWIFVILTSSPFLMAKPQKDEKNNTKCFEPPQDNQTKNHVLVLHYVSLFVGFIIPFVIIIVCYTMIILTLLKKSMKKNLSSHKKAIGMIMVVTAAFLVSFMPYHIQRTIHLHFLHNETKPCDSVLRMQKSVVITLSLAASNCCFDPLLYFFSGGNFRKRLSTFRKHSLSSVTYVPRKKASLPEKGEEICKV

Bacteria = test: Inhibition of Beta-Lactamase at 10 µM in the Eurofins-Panlabs enzyme assay (Eurofins_assay_126000); format: protein-complex assay; design: substrate with concentration; conditions: Compound concentration 10.0 uM
[2] = target: Mitotic checkpoint serine/threonine-protein kinase BUB1 (Homo sapiens, UniProt O43683); test: TR-FRET
[3] = target: Mitogen-activated protein kinase 9 (Homo sapiens) (UniProt P45984); test: JNK2 DiscoveRx kinase panel; conditions: Compound concentration 1.0 uM
Sequence of Mitogen-activated protein kinase 9 (Homo sapiens) (P45984 whole entry, looked up): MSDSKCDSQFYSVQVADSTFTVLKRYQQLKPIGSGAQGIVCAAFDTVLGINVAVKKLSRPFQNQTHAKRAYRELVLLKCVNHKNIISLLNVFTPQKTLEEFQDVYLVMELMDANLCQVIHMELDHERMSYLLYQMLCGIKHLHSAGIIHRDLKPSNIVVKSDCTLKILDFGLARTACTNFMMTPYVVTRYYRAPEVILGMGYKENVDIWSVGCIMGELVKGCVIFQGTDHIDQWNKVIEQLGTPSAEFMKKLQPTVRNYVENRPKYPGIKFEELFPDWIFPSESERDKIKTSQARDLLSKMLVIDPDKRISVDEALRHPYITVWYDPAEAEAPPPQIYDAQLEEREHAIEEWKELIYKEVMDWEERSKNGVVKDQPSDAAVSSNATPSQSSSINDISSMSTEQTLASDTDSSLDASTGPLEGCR

[4] = target: Non-receptor tyrosine-protein kinase TNK1 (Homo sapiens) (UniProt Q13470); test: TNK1 DiscoveRx kinase panel; conditions: Compound concentration 1.0 uM
[5] = target: Serine/threonine-protein kinase Nek6 (Homo sapiens) (UniProt Q9HC98); test: NEK6 DiscoveRx kinase panel; conditions: Compound concentration 1.0 uM
[6] = target: Cyclin-dependent kinase 18 (Homo sapiens) (UniProt Q07002); test: PCTK3 DiscoveRx kinase panel; conditions: Compound concentration 1.0 uM
[7] = target: Platelet-derived growth factor receptor beta (Homo sapiens) (UniProt P09619); test: PDGFRB DiscoveRx kinase panel; conditions: Compound concentration 1.0 uM
[8] = target: Macrophage-stimulating protein receptor (Homo sapiens) (UniProt Q04912); test: MST1R DiscoveRx kinase panel; conditions: Compound concentration 1.0 uM
[9] = target: Serine/threonine-protein kinase Nek5 (Homo sapiens) (UniProt Q6P3R8); test: NEK5 DiscoveRx kinase panel; conditions: Compound concentration 1.0 uM
[10] = target: Cyclin-dependent kinase 2 (Homo sapiens) (UniProt P24941); test: CDK2 DiscoveRx kinase panel; conditions: Compound concentration 1.0 uM
[11] = target: Dual specificity mitogen-activated protein kinase kinase 4 (Homo sapiens) (UniProt P45985); test: MEK4 DiscoveRx kinase panel; conditions: Compound concentration 1.0 uM
Sequence of Dual specificity mitogen-activated protein kinase kinase 4 (Homo sapiens) (P45985 whole entry): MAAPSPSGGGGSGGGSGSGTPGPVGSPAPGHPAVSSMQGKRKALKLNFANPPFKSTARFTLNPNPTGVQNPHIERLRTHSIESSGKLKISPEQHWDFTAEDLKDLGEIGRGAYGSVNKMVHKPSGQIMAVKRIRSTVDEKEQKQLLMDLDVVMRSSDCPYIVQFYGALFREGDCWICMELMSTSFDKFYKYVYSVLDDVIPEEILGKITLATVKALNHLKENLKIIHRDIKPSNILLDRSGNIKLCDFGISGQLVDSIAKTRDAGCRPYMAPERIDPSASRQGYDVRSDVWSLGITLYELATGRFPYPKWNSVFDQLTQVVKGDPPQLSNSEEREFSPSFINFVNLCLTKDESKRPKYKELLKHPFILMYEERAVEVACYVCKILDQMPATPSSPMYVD

[12] = target: Mitogen-activated protein kinase 1 (Homo sapiens) (UniProt P28482); test: ERK2 DiscoveRx kinase panel; conditions: Compound concentration 1.0 uM
[13] = target: Muscle, skeletal receptor tyrosine-protein kinase (Homo sapiens) (UniProt O15146); test: MUSK DiscoveRx kinase panel; conditions: Compound concentration 1.0 uM
[14] = target: Mitogen-activated protein kinase kinase kinase 3 (Homo sapiens) (UniProt Q99759); test: MAP3K3 DiscoveRx kinase panel; conditions: Compound concentration 1.0 uM
[15] = target: Megakaryocyte-associated tyrosine-protein kinase (Homo sapiens) (UniProt P42679); test: CTK DiscoveRx kinase panel; conditions: Compound concentration 1.0 uM
[16] = target: Mitogen-activated protein kinase kinase kinase 2 (Homo sapiens) (UniProt Q9Y2U5); test: MAP3K2 DiscoveRx kinase panel; conditions: Compound concentration 1.0 uM
[17] = target: Ephrin type-A receptor 7 (Homo sapiens) (UniProt Q15375); test: EPHA7 DiscoveRx kinase panel; conditions: Compound concentration 1.0 uM
Sequence of Ephrin type-A receptor 7 (Homo sapiens) (Q15375 28-998 limits assumed): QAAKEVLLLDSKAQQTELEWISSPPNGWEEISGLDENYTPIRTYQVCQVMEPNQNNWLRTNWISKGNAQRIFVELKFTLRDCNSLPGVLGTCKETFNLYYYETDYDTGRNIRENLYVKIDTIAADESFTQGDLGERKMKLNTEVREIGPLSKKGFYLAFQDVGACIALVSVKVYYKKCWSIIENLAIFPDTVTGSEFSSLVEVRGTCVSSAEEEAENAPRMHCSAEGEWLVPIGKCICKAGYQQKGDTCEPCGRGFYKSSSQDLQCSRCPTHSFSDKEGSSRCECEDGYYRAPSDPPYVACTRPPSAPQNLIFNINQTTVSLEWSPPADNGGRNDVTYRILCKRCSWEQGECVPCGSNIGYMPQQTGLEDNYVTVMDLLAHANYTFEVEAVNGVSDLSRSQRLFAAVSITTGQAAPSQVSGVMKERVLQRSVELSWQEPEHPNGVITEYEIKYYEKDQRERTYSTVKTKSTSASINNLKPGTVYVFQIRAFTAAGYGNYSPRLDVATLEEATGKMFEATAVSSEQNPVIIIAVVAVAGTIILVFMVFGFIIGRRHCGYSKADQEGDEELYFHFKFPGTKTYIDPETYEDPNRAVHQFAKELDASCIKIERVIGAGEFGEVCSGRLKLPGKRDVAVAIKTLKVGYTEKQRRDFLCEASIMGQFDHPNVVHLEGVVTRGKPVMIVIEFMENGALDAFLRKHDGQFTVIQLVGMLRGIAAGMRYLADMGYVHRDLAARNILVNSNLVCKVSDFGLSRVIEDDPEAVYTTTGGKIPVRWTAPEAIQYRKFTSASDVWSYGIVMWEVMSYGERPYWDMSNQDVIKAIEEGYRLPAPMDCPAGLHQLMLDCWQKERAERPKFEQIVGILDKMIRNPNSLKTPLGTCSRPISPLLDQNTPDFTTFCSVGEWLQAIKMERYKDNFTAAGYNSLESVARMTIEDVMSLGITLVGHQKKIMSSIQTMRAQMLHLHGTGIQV

[18] = target: Dual specificity mitogen-activated protein kinase kinase 7 (Homo sapiens) (UniProt O14733); test: MKK7 DiscoveRx kinase panel; conditions: Compound concentration 1.0 uM
[19] = target: NT-3 growth factor receptor (Homo sapiens) (UniProt Q16288); test: TRKC DiscoveRx kinase panel; conditions: Compound concentration 1.0 uM
Sequence of NT-3 growth factor receptor (Homo sapiens) (Q16288 32-839 limits assumed): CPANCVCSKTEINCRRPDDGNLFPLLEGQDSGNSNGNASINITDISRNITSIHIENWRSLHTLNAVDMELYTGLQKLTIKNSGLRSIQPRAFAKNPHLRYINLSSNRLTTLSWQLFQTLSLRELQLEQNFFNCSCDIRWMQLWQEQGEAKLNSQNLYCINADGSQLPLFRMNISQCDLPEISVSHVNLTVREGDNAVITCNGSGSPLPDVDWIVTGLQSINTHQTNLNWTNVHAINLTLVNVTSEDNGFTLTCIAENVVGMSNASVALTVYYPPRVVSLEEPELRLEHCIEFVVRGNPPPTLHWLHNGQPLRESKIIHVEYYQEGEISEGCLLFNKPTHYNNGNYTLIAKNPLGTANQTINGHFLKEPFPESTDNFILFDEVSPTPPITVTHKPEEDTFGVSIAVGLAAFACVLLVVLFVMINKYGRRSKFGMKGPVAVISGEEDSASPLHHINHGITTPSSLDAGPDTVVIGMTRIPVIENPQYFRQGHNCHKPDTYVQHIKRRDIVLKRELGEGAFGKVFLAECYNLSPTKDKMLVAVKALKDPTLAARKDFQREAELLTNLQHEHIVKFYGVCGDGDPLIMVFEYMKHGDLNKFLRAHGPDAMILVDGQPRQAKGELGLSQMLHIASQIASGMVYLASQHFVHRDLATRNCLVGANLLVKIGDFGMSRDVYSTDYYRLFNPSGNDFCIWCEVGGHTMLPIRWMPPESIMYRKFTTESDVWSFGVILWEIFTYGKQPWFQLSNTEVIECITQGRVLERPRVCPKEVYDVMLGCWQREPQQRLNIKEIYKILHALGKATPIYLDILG

[20] = target: Cyclin-dependent kinase 3 (Homo sapiens) (UniProt Q00526); test: CDK3 DiscoveRx kinase panel; conditions: Compound concentration 1.0 uM
[21] = target: Cyclin-dependent kinase 9 (Homo sapiens) (UniProt P50750); test: CDK9 DiscoveRx kinase panel; conditions: Compound concentration 1.0 uM
[22] = target: Ankyrin repeat and protein kinase domain-containing protein 1 (Homo sapiens) (UniProt Q8NFD2); test: ANKK1 DiscoveRx kinase panel; conditions: Compound concentration 1.0 uM
[23] = target: Calcium/calmodulin-dependent protein kinase kinase 1 (Homo sapiens) (UniProt Q8N5S9); test: CAMKK1 DiscoveRx kinase panel; conditions: Compound concentration 1.0 uM
[24] = target: Casein kinase II subunit alpha (Homo sapiens) (UniProt P68400); test: CSNK2A1 DiscoveRx kinase panel; conditions: Compound concentration 1.0 uM
[25] = target: Tyrosine-protein kinase HCK (Homo sapiens) (UniProt P08631); test: HCK DiscoveRx kinase panel; conditions: Compound concentration 1.0 uM
Sequence of Tyrosine-protein kinase HCK (Homo sapiens) (P08631 2-526 limits assumed): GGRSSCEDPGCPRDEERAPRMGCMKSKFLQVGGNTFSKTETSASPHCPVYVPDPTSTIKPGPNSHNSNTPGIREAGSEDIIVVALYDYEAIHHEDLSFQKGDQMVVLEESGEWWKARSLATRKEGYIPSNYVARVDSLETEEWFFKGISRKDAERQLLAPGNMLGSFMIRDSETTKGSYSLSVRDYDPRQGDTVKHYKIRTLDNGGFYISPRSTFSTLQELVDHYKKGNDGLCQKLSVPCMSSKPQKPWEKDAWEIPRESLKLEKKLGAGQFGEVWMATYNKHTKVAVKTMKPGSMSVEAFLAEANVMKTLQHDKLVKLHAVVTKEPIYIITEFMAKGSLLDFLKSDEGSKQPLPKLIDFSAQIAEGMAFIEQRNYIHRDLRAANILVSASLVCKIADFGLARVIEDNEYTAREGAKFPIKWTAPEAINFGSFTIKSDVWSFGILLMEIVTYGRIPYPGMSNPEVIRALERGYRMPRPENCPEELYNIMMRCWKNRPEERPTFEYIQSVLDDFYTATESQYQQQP

[26] = target: Homeodomain-interacting protein kinase 2 (Homo sapiens) (UniProt Q9H2X6); test: HIPK2 DiscoveRx kinase panel; conditions: Compound concentration 1.0 uM
[27] = target: Interleukin-1 receptor-associated kinase 4 (Homo sapiens) (UniProt Q9NWZ3); test: IRAK4 DiscoveRx kinase panel; conditions: Compound concentration 1.0 uM
Sequence of Interleukin-1 receptor-associated kinase 4 (Homo sapiens) (Q9NWZ3 whole entry): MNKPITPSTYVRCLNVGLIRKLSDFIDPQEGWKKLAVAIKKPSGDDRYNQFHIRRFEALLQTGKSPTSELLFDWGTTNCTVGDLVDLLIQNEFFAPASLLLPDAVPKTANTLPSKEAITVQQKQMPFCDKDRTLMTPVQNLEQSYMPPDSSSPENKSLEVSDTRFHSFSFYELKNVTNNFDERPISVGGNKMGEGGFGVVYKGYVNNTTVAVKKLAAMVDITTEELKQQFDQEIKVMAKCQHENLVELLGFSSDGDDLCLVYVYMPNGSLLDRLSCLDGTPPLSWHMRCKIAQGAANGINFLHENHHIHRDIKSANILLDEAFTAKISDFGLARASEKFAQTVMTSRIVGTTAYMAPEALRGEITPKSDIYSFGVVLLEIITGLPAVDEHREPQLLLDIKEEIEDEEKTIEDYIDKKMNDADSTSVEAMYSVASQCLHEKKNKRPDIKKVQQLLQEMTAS

[28] = target: Leukocyte tyrosine kinase receptor (Homo sapiens) (UniProt P29376); test: LTK DiscoveRx kinase panel; conditions: Compound concentration 1.0 uM
[29] = target: Serine/threonine-protein kinase OSR1 (Homo sapiens) (UniProt O95747); test: OSR1 DiscoveRx kinase panel; conditions: Compound concentration 1.0 uM
[30] = target: 3-phosphoinositide-dependent protein kinase 1 (Homo sapiens) (UniProt O15530); test: PDPK1 DiscoveRx kinase panel; conditions: Compound concentration 1.0 uM
[31] = target: Phosphatidylinositol 4,5-bisphosphate 3-kinase catalytic subunit alpha isoform (Homo sapiens) (UniProt P42336); test: PIK3CA DiscoveRx kinase panel; conditions: Compound concentration 1.0 uM
Sequence of Phosphatidylinositol 4,5-bisphosphate 3-kinase catalytic subunit alpha isoform (Homo sapiens) (P42336 whole entry, canonical isoform): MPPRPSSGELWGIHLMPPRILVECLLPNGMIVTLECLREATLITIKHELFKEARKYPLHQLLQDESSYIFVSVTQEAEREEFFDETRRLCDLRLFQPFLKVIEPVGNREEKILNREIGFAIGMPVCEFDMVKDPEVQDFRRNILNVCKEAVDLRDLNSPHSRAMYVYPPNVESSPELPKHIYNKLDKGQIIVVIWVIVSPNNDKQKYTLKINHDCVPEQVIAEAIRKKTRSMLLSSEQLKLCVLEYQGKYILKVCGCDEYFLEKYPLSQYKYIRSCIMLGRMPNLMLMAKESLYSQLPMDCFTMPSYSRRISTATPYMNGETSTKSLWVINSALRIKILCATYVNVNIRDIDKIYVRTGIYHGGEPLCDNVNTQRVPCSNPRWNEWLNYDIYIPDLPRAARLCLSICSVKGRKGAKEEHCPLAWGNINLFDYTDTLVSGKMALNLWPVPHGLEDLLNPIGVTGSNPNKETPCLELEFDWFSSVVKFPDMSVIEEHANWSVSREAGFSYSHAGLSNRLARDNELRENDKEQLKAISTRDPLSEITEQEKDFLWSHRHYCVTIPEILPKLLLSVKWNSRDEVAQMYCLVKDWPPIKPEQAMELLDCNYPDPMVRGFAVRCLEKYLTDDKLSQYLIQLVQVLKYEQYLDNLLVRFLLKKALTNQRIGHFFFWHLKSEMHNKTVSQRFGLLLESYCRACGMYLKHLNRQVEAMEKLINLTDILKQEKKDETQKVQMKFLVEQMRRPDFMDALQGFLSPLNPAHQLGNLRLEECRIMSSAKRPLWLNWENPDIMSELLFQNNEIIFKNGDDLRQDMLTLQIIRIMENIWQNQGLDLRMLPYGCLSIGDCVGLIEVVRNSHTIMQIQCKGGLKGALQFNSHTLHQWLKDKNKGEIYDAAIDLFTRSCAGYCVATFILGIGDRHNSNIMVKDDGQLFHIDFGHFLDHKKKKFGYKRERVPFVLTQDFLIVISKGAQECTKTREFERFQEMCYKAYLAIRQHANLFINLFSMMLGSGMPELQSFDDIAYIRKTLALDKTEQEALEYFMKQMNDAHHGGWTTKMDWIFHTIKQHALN

[32] = target: Serine/threonine-protein kinase RIO2 (Homo sapiens) (UniProt Q9BVS4); test: RIOK2 DiscoveRx kinase panel; conditions: Compound concentration 1.0 uM
[33] = target: Dual serine/threonine and tyrosine protein kinase (Homo sapiens) (UniProt Q6XUX3); test: RIPK5 DiscoveRx kinase panel; conditions: Compound concentration 1.0 uM
[34] = target: Ribosomal protein S6 kinase alpha-6 (Homo sapiens) (UniProt Q9UK32); test: RSK4(Kin.Dom.1-N-terminal) DiscoveRx kinase panel; conditions: Compound concentration 1.0 uM
[35] = target: Proto-oncogene tyrosine-protein kinase Src (Homo sapiens) (UniProt P12931); test: SRC DiscoveRx kinase panel; conditions: Compound concentration 1.0 uM
[36] = target: TGF-beta receptor type-2 (Homo sapiens) (UniProt P37173); test: TGFBR2 DiscoveRx kinase panel; conditions: Compound concentration 1.0 uM
[37] = HeLa-MaTu-ADR cell line Proliferation assay; format: functional, Homo sapiens; conditions: time 4 day
[38] = target: D(1B) dopamine receptor (Homo sapiens) (UniProt P21918); conditions: Compound concentration 10.0 uM
[39] = target: Histamine H3 receptor (Homo sapiens) (UniProt Q9Y5N1); conditions: Compound concentration 10.0 uM
[40] = target: T1, Alpha-2A adrenergic receptor (Homo sapiens) (UniProt P08913); conditions: Compound concentration 10.0 uM
T1 sequence (whole entry): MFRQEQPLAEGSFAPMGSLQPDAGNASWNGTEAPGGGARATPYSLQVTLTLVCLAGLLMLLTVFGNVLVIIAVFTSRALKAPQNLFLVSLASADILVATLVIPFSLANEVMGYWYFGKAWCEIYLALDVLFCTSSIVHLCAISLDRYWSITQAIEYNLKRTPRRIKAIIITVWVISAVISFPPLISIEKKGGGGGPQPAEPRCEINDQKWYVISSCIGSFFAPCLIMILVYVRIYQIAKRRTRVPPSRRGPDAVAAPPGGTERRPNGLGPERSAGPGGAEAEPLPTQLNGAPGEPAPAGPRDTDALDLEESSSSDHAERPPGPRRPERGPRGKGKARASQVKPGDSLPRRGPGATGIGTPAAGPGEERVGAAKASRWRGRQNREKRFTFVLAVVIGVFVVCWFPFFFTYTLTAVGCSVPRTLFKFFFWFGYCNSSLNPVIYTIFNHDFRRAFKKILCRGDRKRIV

[41] = target: T1, Alpha-2A adrenergic receptor (Homo sapiens); conditions: Compound concentration 10.0 uM; remark: listed apart in the source
[42] = target: Glutamate receptor 2 (Homo sapiens) (UniProt P42262); conditions: Rattus norvegicus; Compound concentration 10.0 uM

COc1cnccc1Nc1nc(-c2nn(Cc3c(F)cc(OCCO)cc3F)c3ccccc23)ncc1OC
inhibition [1]: 32%
inhibition (Bacteria): 21%
EC50 [2]: 0.0061 µM (active)
residual activity [3]: 39%
residual activity [4]: 62%
residual activity [5]: 70%
residual activity [6]: 76%
residual activity [7]: 77%
residual activity [8]: 80%
residual activity [9]: 88%
residual activity [10]: 89%
residual activity [11]: 90%
residual activity [12]: 93%
residual activity [13]: 93%
residual activity [14]: 95%
residual activity [15]: 97%
residual activity [16]: 97%
residual activity [17]: 98%
residual activity [18]: 98%
residual activity [19]: 98%
residual activity [20]: 99%
residual activity [21]: 99%
residual activity [22]: 100%
residual activity [23]: 100%
residual activity [24]: 100%
residual activity [25]: 100%
residual activity [26]: 100%
residual activity [27]: 100%
residual activity [28]: 100%
residual activity [29]: 100%
residual activity [30]: 100%
residual activity [31]: 100%
residual activity [32]: 100%
residual activity [33]: 100%
residual activity [34]: 100%
residual activity [35]: 100%
residual activity [36]: 100%
Cell Proliferation IC50 [37]: 1.1 µM
inhibition [38]: -0.37%
inhibition [39]: 21.3%
inhibition [40]: 7.49%
inhibition [41]: 2%
inhibition [42]: 7%
